Measurements taken from patent publication US20070299103A1, “[1,2,4]Triazolo[4,3-A]Pyridine Derivatives for the Treatment of Hyperproliferative Diseases” (priority 2004, published 2007).

Columns and labels:
[1] = target: human MEK1 (Homo sapiens, UniProt Q02750); assay: Inhibition of human MEK1 kinase activity, TR-FRET assay; assay type: biochemical; conditions: 100 nM MEK1, 15 μM ATP, 300 nM ERK2, two hours; read-out: Inhibition of MEK, Activity (IC50)
Protocol: The activity of the compounds of the present invitation may be determined by the following procedure: Inhibition of human MEK1 kinase activity was monitored with a homogenous, fluorescence based assay. The assay uses time resolved fluorescence resonance energy transfer to probe for phosphorylation of ERK1 by MEK1. The assay is carried out in low volume 96 well microtiterplates. In a total volume of 15 μl, compounds are incubated with 100 nM MEK1, 15 μM ATP, 300 nM ERK2 employing a buffer containing 20 mM TRIS/HCl, 10 mM MgCl2, 100 μM NaVO4, 1 mM DTT, and 0.005% Tween 20 (pH 7.4). After two hours, 5 nM Europium-anti-PY20 (Perkin Elmer) and 50 nM Anti-GST-Allophycocyanin (CisBio) in buffer containing 50 mM EDTA and 0.05% BSA are added and the reaction incubated for one hour in the dark. Time-resolved fluorescence is measured using a LJL-Analyst (Molecular Devices) with an excitation wavelength of 340 nm and an emission wavelength of 665 nm. The final concentration of DMSO is 2%. To assess the inhibitory potential of the compounds, IC50-values were determined.
The following compounds exemplify such activity with “+” meaning 1 μM<IC50≦10 μM and “++” IC50≦1 μM

[2] = test system: human melanoma Mel5 cells; assay: Tumor cell proliferation assay (ATP Lite), Mel5; assay type: cell-based; conditions: 4 days incubation
Protocol: (§1) Murine colon C26, human melanoma A375 and human melanoma Mel5 cells were plated in 96 well Corning white plates (1500 cells/well for C26, and 2000 cells/well for A375, and MiaPaCa-2) and cultured overnight at 37° C. in 5% CO2. Inhibitors were serially diluted in 100% DMSO and subsequently added to cells to reach a final concentration of 0.25% DMSO. The cells were incubated for 4 days in the presence of test compounds in cell growth media (DMEM with 10% fetal bovine serum, 2 mM glutamine for C26, and MiaPaCa-2, and RPMI with 10% fetal bovine serum, 2 mM glutamine for A375). Cell proliferation was quantitated using the ATP lite cell proliferation kit (Packard). Columns 2-4 show the concentration of compounds required to induce 50% cell death (IC50 in μM) of human endometriotic cells. With “+” meaning 100 μM<IC50≦10 μM and “++” IC50≦1 μM and “n.d.” means not determined.

[3] = test system: human melanoma A375 cells; assay: Tumor cell proliferation assay (ATP Lite), A375; assay type: cell-based; conditions: 4 days incubation
Protocol: as §1

[4] = test system: Murine colon C26 cells; assay: Tumor cell proliferation assay (ATP Lite), C26; assay type: cell-based; conditions: 4 days incubation
Protocol: as §1

[5] = test system: Caco-2 cells; assay: Caco-2 permeability assay; assay type: in vitro ADME; conditions: 10 μM, pH 7.4, 120 minutes
Protocol: Caco-2 cells obtained from the ATCC at passage number 27 are used. Cells (passage number 40-60) were seeded on to Millipore Multiscreen Caco-2 plates or Falcon HTS inserts at 1×10^5 cells/cm2. Cells were cultured for 20 days in DMEM and media was changed every two or three days. On day 20 the permeability study was performed.
Permeability was studied by applying compound to the apical surface of cell monolayers and measuring compound permeation into the basolateral compartment. The experiment was also performed in the reverse direction (B-A) to investigate active transport. […]
HBSS was then removed from the apical compartment and replaced with test compound dosing solutions. […] Test compound permeability was assessed in duplicate. […]
The integrity of the monolayers throughout the experiment is checked by monitoring lucifer yellow permeation using fluorimetric analysis. […] Test and control compounds were quantified by LC-MS/MS cassette analysis using a 5-point calibration with appropriate dilution of the samples. […]
The permeability coefficient for each compound (Papp) was calculated from the following equation: Papp=[dQ/dt]/[C0×A] […]
Wherein “+” means a caco A-B and caco B-A value of 1-10 and “++” means a caco A-B and caco B-A value of 11-100 and “n.d.” means not determined.

[6] = Microsomal stability assay, human liver microsomes; assay type: in vitro ADME; conditions: pooled human liver microsomes, pH 7.4; 3 μM compound, 0.5 mg/ml human liver microsomes, 37° C., 2 mM NADPH; read-out: HLM t½
Protocol: (§2) Compounds were tested on their stability in human, rat and mouse liver microsomal preparations (HLM, RLM and MLM respectively). At a final concentration of 3 μM, compounds were incubated at 37° C. with 0.5 mg/ml human, rat or mouse liver microsomes in a buffer containing 50 mM phosphate, pH 7.4 and 2 mM NADPH. Pooled human liver microsomes or pooled male rat liver microsomes (Sprague Dawley) were obtained from NatuTec (Frankfurt, Germany). Incubations without NADPH served as negative controls. Reactions were stopped after 0, 15, 30, 45 or 60 min by the addition of acetonitrile and microsomes were pelleted by centrifugation (10 min at 6200×g). Supernatants were analyzed by HPLC regarding the concentration of mother compound. Finally, the half-life of compounds in the regarding microsomal preparation was calculated.

[7] = Microsomal stability assay, rat liver microsomes; assay type: in vitro ADME; conditions: male, Sprague Dawley, pooled rat liver microsomes, pH 7.4; 3 μM compound, 0.5 mg/ml rat liver microsomes, 37° C., 2 mM NADPH; read-out: RLM t½
Protocol: as §2

[8] = in vivo; cited from earlier work
[9] = test system: Tumors; conditions: patients; cited from earlier work

human MEK1, sequence (Q02750 whole entry): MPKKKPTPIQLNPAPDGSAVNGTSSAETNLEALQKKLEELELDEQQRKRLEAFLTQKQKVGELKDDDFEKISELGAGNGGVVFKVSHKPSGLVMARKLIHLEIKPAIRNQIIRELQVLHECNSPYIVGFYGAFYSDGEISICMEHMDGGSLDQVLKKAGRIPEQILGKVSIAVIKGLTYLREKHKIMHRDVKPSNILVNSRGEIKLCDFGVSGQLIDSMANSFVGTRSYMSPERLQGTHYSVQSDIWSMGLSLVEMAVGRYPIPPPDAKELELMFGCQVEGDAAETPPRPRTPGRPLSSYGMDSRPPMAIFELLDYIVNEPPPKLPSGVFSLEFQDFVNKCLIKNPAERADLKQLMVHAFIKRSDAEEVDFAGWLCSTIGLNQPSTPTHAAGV

SMILES	IC50 [1]	Mel5 cells IC50 [2]	A375 cells IC50 [3]	C26 cells IC50 [4]	Caco A-B ([5]; apical to basolateral)	Caco B-A ([5]; basolateral to apical)	half-life at 3 μM [6]	half-life at 3 μM [7]	bioavailability [8]	efficacy in clinical phase II trials [9]
Cc1cc(Br)ccc1Nc1cc2nnc(C)n2cc1C(=O)O [Compound 2a, 7-[(4-Bromo-2-methylphenyl)amino]-3-methyl[1,2,4]triazolo[4,3-a]pyridine-6-carboxylic acid]	1 to 10 µM	+ (100 μM<IC50≦10 μM)	+ (100 μM<IC50≦10 μM)	+ (100 μM<IC50≦10 μM)	–	–	–	–	–	–
Cc1cc(Br)ccc1Nc1cc2nnc(C)n2cc1C(=O)NOC[C@@H](O)CO [Compound 3b, 7-[(4-Bromo-2-methylphenyl)amino]-N-([(2S)-2,3-dihydroxypropyl]oxy)-3-methyl[1,2,4]triazolo[4,3-a]pyridine-6-carboxamide]	1 to 10 µM	+ (100 μM<IC50≦10 μM)	+ (100 μM<IC50≦10 μM)	+ (100 μM<IC50≦10 μM)	+ (a caco A-B and caco B-A value of 1-10)	+ (a caco A-B and caco B-A value of 1-10)	> 2 h	> 2 h	–	–
Cc1cc(Br)ccc1Nc1cc2nnc(C)n2cc1C(=O)NO [Compound 3a, 7-[(4-Bromo-2-methylphenyl)amino]-N-hydroxy-3-methyl[1,2Z4]triazolo[4,3-a]pyridine-6-carboxamide]	≤ 1 µM	+ (100 μM<IC50≦10 μM)	+ (100 μM<IC50≦10 μM)	+ (100 μM<IC50≦10 μM)	–	–	–	–	–	–
Cc1cc(I)ccc1Nc1cc2nnc(C)n2cc1C(=O)NOC[C@H](O)CO [Compound 3c, 7-[(4-Iodo-2-methylphenyl)amino]-N-([(2R)-2,3-dihydroxypropyl]oxy)-3-methyl[1,2,4]triazolo[4,3-a]pyridine-6-carboxamide]	≤ 1 µM	–	–	–	–	–	–	–	–	–
O=C(NOCC1CC1)c1ccc(F)c(F)c1Nc1ccc(I)cc1Cl [PD-184352]	–	–	–	–	–	–	–	–	low bioavailability	lacking efficacy
